The text below walks through data of patent US6635771B2, “N-benzhydryl indole compounds” (Wyeth, priority 2001, dated 2003).

For the assay, the target named is T1, cPLA2 (Homo sapiens, UniProt P47712).
T1 sequence (P47712 1-749): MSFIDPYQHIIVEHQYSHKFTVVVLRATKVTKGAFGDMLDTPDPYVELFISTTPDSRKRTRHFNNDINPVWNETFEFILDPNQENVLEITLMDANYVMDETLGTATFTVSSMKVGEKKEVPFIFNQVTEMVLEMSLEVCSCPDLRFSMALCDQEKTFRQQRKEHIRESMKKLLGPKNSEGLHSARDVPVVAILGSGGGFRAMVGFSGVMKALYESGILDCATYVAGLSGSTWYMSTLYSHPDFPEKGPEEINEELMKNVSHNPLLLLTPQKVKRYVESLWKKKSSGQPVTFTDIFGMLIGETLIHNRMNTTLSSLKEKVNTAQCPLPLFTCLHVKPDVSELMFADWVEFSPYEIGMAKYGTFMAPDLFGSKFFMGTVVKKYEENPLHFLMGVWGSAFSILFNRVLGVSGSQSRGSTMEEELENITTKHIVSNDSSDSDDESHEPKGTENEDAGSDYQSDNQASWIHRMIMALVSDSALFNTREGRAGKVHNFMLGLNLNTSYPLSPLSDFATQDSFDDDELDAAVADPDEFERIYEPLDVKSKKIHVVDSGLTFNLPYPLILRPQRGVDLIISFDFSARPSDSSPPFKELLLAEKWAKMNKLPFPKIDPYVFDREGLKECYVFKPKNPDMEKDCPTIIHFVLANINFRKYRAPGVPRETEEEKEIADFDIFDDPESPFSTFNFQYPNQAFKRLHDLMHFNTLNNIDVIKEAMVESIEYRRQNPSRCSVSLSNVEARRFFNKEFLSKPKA
The assay can be described thus: Coumarine Assay. It counts as biochemical. The following applies: 60 μM 7-hydroxycoumarinyl 6-heptenoate substrate, 4 μg cPLA2, pH 7.5, fluorescence ex 360 nm / em 460 nm; read-out: Coumarin IC50.

A word on the IC50: it is the concentration that inhibits the measured activity by half.

On to `O=C(O)c1ccc(CCCc2c(CCNS(=O)(=O)CCN3CCOCC3)n(C(c3ccccc3)c3ccccc3)c3ccc(Cl)cc23)cc1` [Example 100, 4-(3-{1-Benzhydryl-5-chloro-2-[2-(2-morpholin-4-yl-ethanesulfonylamino)-ethyl]-1H-indol-3-yl}-propyl)-benzoic acid], for which the IC50 amounted to 120 nM. For `CC1CCCC(C)N1CCS(=O)(=O)NCCc1c(CCCc2ccc(C(=O)O)cc2)c2cc(Cl)ccc2n1C(c1ccccc1)c1ccccc1` (centres unmarked) [Example 101, 4-[3-(1-Benzhydryl-5-chloro-2-{2-[2-(2,6-dimethyl-piperidin-1-yl)-ethanesulfonylamino]-ethyl}-1H-indol-3-yl)-propyl]-benzoic acid] the value was 100 nM. As for `Cc1cc(C)n(CCS(=O)(=O)NCCc2c(CCCc3ccc(C(=O)O)cc3)c3cc(Cl)ccc3n2C(c2ccccc2)c2ccccc2)n1` [Example 102], the IC50 turned out to be 190 nM.

On to `O=C(O)c1ccc(OCCc2c(CCNS(=O)(=O)CCn3ncnn3)n(C(c3ccccc3)c3ccccc3)c3ccc(Cl)cc23)cc1` [Example 103, 4-(2-{1-benzhydryl-5-chloro-2-[2-(2-tetrazol-2-yl-ethanesulfonylamino)-ethyl]-1H-indol-3-yl}ethoxy)benzoic acid], for which the IC50 turned out to be 1100 nM. The result for `O=C(O)c1ccc(OCCc2c(CCNS(=O)(=O)CCn3cnnn3)n(C(c3ccccc3)c3ccccc3)c3ccc(Cl)cc23)cc1` [Example 104, 4-(2-{1-benzhydryl-5-chloro-2-[2-(2-tetrazol-1-yl-ethanesulfonylamino)-ethyl]-1H-indol-3-yl}ethoxy)benzoic acid] reads 1100 nM; that for `O=C(O)c1ccc(OCCc2c(CCNS(=O)(=O)Cc3ccc(Cl)c(Cl)c3)n(C(c3ccccc3)c3ccccc3)c3cc(Cl)ccc23)cc1` [Example 106, 4-(2-{1 -Benzhydryl-6-chloro-2-[2-(3,4-dichloro-phenylmethanesulfonylamino)-ethyl]-1H-indol-3-yl}-ethoxy)-benzoic acid], 220 nM; that for `O=C(O)c1ccc(OCCc2c(CCNS(=O)(=O)Cc3cc(Cl)cc(Cl)c3)n(C(c3ccccc3)c3ccccc3)c3cc(Cl)ccc23)cc1` [Example 107, 4-[2-{1-Benzhydryl-6-chloro-2-[2-(3,5-dichloro-phenylmethanesulfonylamino)-ethyl]-1H-indol-3-yl}-ethoxy)-benzoic acid], 330 nM. As for `N#Cc1ccccc1CS(=O)(=O)NCCc1c(CCOc2ccc(C(=O)O)cc2)c2cc(Cl)ccc2n1C(c1ccccc1)c1ccccc1` [Example 108, 4-{2-[1-Benzhydryl-5-chloro-2-(2-{[(2-cyanobenzyl)sulfonyl]amino}ethyl)-1H-indol-3-yl]ethoxy}benzoic acid], the IC50 was 150 nM. For `O=C(O)c1ccc(OCCc2c(CCNS(=O)(=O)CC3CCCCO3)n(C(c3ccccc3)c3ccccc3)c3ccc(Cl)cc23)cc1` (centres unmarked) [Example 109, 4-{2-[1-Benzhydryl-5-chloro-2-(2-{[(tetrahydro-2H-pyran-2-ylmethyl)sulfonyl]amino}ethyl)-1H-indol-3-yl]ethoxy}benzoic acid] the value was 400 nM. For `O=C(O)c1ccc(OCCc2c(CCNS(=O)(=O)Cc3nc4ccccc4o3)n(C(c3ccccc3)c3ccccc3)c3ccc(Cl)cc23)cc1` [Example 110, 4-{2-[1-Benzhydryl-2-(2-{[(1,3-benzoxazol-2-ylmethyl)sulfonyl]amino}ethyl)-5-chloro-1H-indol-3-yl]ethoxy}benzoic acid] the value was 500 nM; for `O=C(O)c1ccc(OCCc2c(CCNS(=O)(=O)Cc3ccsc3)n(C(c3ccccc3)c3ccccc3)c3ccc(Cl)cc23)cc1` [Example 112, 4-{2-[1-Benzhydryl-5-chloro-2-(2-{[(3-thienylmethyl)sulfonyl]amino}ethyl)-1H-indol-3-yl]ethoxy}benzoic acid], 1200 nM. As for `CC1CCCN1CCS(=O)(=O)NCCc1c(CCOc2ccc(C(=O)O)cc2)c2cc(Cl)ccc2n1C(c1ccccc1)c1ccccc1` (centres unmarked) [Example 113, 4-[2-(1-Benzhydryl-5-chloro-2-{2-[2-(2-methyl-pyrrolidin-1-yl)-ethanesulfonylamino]-ethyl}-1H-indol-3-yl)-ethoxy]-benzoic acid], the IC50 was determined as 1300 nM. For `CC1CCCCN1CCS(=O)(=O)NCCc1c(CCOc2ccc(C(=O)O)cc2)c2cc(Cl)ccc2n1C(c1ccccc1)c1ccccc1` (centres unmarked) [Example 114, 4-[2-(1-Benzhydryl-5-chloro-2-{2-[2-(2-methyl-piperidin-1-yl)-ethanesulfonylamino]-ethyl}-1H-indol-3-yl)-ethoxy]-benzoic acid] the value was 1100 nM; for `CC1CCC(C)N1CCS(=O)(=O)NCCc1c(CCOc2ccc(C(=O)O)cc2)c2cc(Cl)ccc2n1C(c1ccccc1)c1ccccc1` (centres unmarked) [Example 115, 4-[2-(1-Benzhydryl-5-chloro-2-{2-[2-(2,5-dimethyl-pyrrolidin-1-yl)-ethanesulfonylamino]-ethyl}-1H-indol-3-yl)-ethoxy]-benzoic acid], 900 nM; for `O=C(O)c1ccc(OCCc2c(CCNS(=O)(=O)CCN3CCCCC3)n(C(c3ccccc3)c3ccccc3)c3ccc(Cl)cc23)cc1` [Example 117], 1600 nM.

For `Cc1ccccc1SCS(=O)(=O)NCCc1c(CCOc2ccc(C(=O)O)cc2)c2cc(Cl)ccc2n1C(c1ccccc1)c1ccccc1` [Example 118, 4-{2-[1-benzhydryl-5-chloro-2-(2-o-tolylsulfanylmethanesulfonylamino-ethyl)-1H-indol-3-yl]-ethoxy}-benzoic acid], the IC50 stood at 400 nM.

For the compound `O=C(O)c1ccc(OCCc2c(CCNS(=O)(=O)CSc3ccccc3Cl)n(C(c3ccccc3)c3ccccc3)c3ccc(Cl)cc23)cc1` [Example 119], the IC50 is 400 nM. Consider `O=C(O)c1ccc(OCCc2c(CCNS(=O)(=O)CSc3c(Cl)cccc3Cl)n(C(c3ccccc3)c3ccccc3)c3ccc(Cl)cc23)cc1` [Example 120, 4-(2-{1-benzhydryl-5-chloro-2-[2-(2,6-dichloro-phenylsulfanylmethanesulfonylamino)-ethyl]-1H-indol-3-yl}-ethoxy)-benzoic acid], for which the IC50 was determined as 400 nM. The result for `COc1ccc(OC)c(SCS(=O)(=O)NCCc2c(CCOc3ccc(C(=O)O)cc3)c3cc(Cl)ccc3n2C(c2ccccc2)c2ccccc2)c1` [Example 121, 4-(2-{1-benzhydryl-5-chloro-2-[2-(2,5-dimethoxy-phenylsulfanylmethanesulfonylamino)-ethyl]-1H-indol-3-yl}-ethoxy)-benzoic acid] reads 460 nM. The result for `O=C(O)c1ccc(OCCc2c(CCNS(=O)(=O)CCN3CCC(O)C3)n(C(c3ccccc3)c3ccccc3)c3ccc(Cl)cc23)cc1` (centres unmarked) [Example 122, 4-[2-(1-benzhydryl-5-chloro-2-{2-[2-(3-hydroxy-pyrrolidine-1-yl)-ethanesulfonylamino]-ethyl}-1H-indol-3-yl)-ethoxy]-benzoic acid] reads 2500 nM; that for `O=C(O)c1ccc(OCCc2c(CCNS(=O)(=O)CCN3CCC(O)CC3)n(C(c3ccccc3)c3ccccc3)c3ccc(Cl)cc23)cc1` [Example 123, 4-[2-(1-Benzhydryl-5-chloro-2-{2-[2-(4-hydroxy-piperidin-1-yl)-ethanesulfonylamino]-ethyl}-1H-indol-3-yl)-ethoxy]-benzoic acid], 1700 nM. For `CN(C)CC1CCCCN1CCS(=O)(=O)NCCc1c(CCOc2ccc(C(=O)O)cc2)c2cc(Cl)ccc2n1C(c1ccccc1)c1ccccc1` (centres unmarked) [Example 124, 4-[2-(1-Benzhydryl-5-chloro-2-{2-[2-(2-dimethylaminomethyl-piperidin-1-yl)-ethanesulfonylamino]-ethyl}-1H-indol-3-yl)-ethoxy]-benzoic acid] the value was 800 nM; for `O=C(O)c1ccc(CCCc2c(CCNS(=O)(=O)Cc3c(F)cccc3F)n(C(c3ccccc3)c3ccccc3)c3ccc(Cl)cc23)cc1` [Example 126, 4-{3-[1-benzhydryl-5-chloro-2-{2-([(2,6-difluorobenzyl)sulfonyl]amino}ethyl)-1H-indol-3-yl]propyl}benzoic acid], 200 nM. Take `O=C(O)c1ccc(CCCc2c(CCNS(=O)(=O)Cc3ccc(Cl)c(Cl)c3)n(C(c3ccccc3)c3ccccc3)c3ccccc23)cc1` [Example 127, 4-{3-[1-benzhydryl-2-(2-{[(3,4-dichlorobenzyl)sulfonyl]amino}ethyl)-1H-indol-3-yl]propyl}benzoic acid]: the IC50 came out at 200 nM. For `O=C(O)c1ccc(CCCc2c(CCNS(=O)(=O)Cc3ccccc3)n(C(c3ccccc3)c3ccccc3)c3ccccc23)cc1` [Example 128, 4-[3-(1-benzhydryl-2-{2-[(benzylsulfonyl)amino]ethyl}-1H-indol-3-yl)propyl]benzoic acid] the value was 320 nM; for `O=C(O)CCc1ccc(S(=O)(=O)CCc2c(CCNS(=O)(=O)Cc3c(F)cccc3F)n(C(c3ccccc3)c3ccccc3)c3ccc(Cl)cc23)cc1` [Example 131, 3-[4-({2-[1-benzhydryl-5-chloro-2-(2-{[(2,6-difluorobenzyl)sulfonyl]amino}ethyl)-1H-indol-3-yl]ethyl}sulfonyl)phenyl]propanoic acid], 200 nM.
